Calls of active or inactive are those of the source.
Columns and labels:
[1] = A cytotoxicity screen of small molecule inhibitors of the PhoP region in Salmonella typhi identified in the primary screen. [Related pubchem assays: 1850, 1864, 1985 ]; type: functional
[2] = target: Photoreceptor-specific nuclear receptor (Homo sapiens, UniProt Q9Y5X4); assay: ligands suppressing NR2E3 nuclear receptor activity – biochemical, TR-FRET, dose response (AID 463256); type: functional
[3] = target: Peroxisome proliferator-activated receptor gamma/Nuclear receptor corepressor 2 (Homo sapiens, UniProt P37231+Q9Y618); assay: Counterscreen for NR2E3 inverse agonists: TR-FRET-based biochemical high throughput dose response assay to identify inverse agonists of the interaction between peroxisome proliferator-activated receptor gamma (PPARg) and nuclear receptor co-repressor 2 (NCOR2).; type: functional
Paired box protein Pax-8 = Paired box protein Pax-8 (Homo sapiens, UniProt Q06710); assay: PAX8 transcriptional activity inhibition in RMG-I – RMG-I cells, luciferase, cherry-pick, dose response (AID 687027); type: functional, cell-based;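 note: luciferase reporter driven by Pax8 target thyroperoxidase promoter measured by SteadyGlo luminescence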
[4] = target: T1, Microphthalmia-associated transcription factor (Homo sapiens, UniProt O75030); assay: reducers of TRPM1 reporter luminescence, concentration series – cell-based, SK-MEL-5, cherry-picked, set 3, MITF inhibitor project, dose response (AID 493073); type: functional;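 note: SK-MEL-5 melanoma cells with luciferase driven by the MITF target TRPM1 promoter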
T1 sequence (O75030 whole entry): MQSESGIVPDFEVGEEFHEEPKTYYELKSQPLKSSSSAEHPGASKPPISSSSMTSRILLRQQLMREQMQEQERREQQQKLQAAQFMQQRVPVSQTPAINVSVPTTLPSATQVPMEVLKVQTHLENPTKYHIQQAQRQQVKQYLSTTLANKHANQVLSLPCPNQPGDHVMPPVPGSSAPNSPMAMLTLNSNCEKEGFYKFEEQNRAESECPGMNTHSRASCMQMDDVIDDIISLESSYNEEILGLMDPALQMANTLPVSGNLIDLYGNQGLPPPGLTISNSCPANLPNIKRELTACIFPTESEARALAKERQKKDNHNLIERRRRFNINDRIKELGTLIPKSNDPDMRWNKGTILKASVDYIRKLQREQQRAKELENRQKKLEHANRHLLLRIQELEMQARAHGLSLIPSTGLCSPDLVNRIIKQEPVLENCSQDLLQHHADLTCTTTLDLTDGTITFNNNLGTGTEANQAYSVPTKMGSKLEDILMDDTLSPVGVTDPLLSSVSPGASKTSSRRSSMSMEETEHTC

H4 = assay: Luminescence Cell-Based Dose Response HTS to Identify Activators of 5'UTR Stem-Loop Driven Prion Protein mRNA Translation in H4 Neuroglioblastoma Cells. [Related pubchem assays: 1829 (Project Summary), 1814 (Primary HTS)]; type: functional; conditions: Homo sapiens
[5] = Luminescence Cell-Based Dose Confirmation to Identify Activators of 5'UTR Stem-Loop Driven Alpha-Synuclein mRNA Translation in H4 Neuroglioblastoma Cells. [Related pubchem assays: 1829 (Project Summary), 1814 (Primary HTS)]; type: functional
[6] = Luminescence Cell-Based Dose Response HTS to Identify Activators of Luciferase Translation or Activity in H4 […] Cells. [Related pubchem assays: 1829 (Project Summary), 1814 (Primary HTS)]; type: functional
[7] = target: FAD-linked sulfhydryl oxidase ALR (Homo sapiens, UniProt P55789); assay: ALR-catalysed DTT oxidation blockers – biochemical, H2O2 detection, luminescence, cherry-pick, dose response (AID 493248)
[8] = Luminescence Cell-Based Dose Response to Identify Activators of 5'UTR Stem-Loop Driven Prion Protein mRNA Translation in H4-C Neuroglioblastoma Cells. [Related pubchem assays: 1829 (Project Summary), 1814 (Primary HTS)]; type: functional
[9] = Luminescence Cell-Based Dose Response to Identify Activators of Luciferase Translation or Activity in H4-C Neuroglioblastoma Cells. [Related pubchem assays: 1829 (Project Summary), 1814 (Primary HTS)]; type: functional
[10] = target: T2, Replicative DNA helicase DnaB (Mycobacterium tuberculosis, UniProt P9WMR3); assay: DnaB intein splicing inhibitors, dose response, biochemical, cell-free fluorescence (AID 449749); type: functional
T2 sequence (P9WMR3 whole entry): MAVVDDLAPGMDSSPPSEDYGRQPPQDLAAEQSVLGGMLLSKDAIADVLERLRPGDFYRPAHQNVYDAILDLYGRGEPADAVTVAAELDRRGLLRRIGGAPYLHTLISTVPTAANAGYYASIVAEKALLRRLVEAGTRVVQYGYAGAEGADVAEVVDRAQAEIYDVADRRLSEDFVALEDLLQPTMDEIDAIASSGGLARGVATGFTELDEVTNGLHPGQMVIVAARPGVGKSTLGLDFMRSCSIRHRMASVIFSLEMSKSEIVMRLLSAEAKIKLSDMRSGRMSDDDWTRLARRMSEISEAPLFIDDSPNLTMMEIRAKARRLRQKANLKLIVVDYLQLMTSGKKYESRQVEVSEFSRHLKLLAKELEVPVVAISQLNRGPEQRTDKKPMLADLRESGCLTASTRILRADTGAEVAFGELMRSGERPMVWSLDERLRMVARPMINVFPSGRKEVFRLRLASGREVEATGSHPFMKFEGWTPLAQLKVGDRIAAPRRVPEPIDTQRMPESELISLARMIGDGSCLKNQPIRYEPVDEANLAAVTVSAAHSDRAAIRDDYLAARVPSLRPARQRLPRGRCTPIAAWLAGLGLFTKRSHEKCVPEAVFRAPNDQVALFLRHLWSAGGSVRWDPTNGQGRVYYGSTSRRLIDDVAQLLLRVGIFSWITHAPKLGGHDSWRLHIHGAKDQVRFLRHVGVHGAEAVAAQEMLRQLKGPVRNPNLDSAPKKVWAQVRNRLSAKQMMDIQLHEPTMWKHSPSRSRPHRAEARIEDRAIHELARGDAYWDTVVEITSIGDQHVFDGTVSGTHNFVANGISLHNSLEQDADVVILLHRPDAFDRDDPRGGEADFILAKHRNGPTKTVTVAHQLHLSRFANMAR

Protein RecA = target: T3, Protein RecA (Mycobacterium tuberculosis, UniProt P9WHJ3); assay: Fluorescence Cell-Free Homogeneous Dose Retest to Identify Inhibitors of RecA-Intein Splicing Activity. [Related pubchem assays (depositor defined):AID2097, AID2223, AID489010, AID492950]; type: functional
T3 sequence (P9WHJ3 whole entry): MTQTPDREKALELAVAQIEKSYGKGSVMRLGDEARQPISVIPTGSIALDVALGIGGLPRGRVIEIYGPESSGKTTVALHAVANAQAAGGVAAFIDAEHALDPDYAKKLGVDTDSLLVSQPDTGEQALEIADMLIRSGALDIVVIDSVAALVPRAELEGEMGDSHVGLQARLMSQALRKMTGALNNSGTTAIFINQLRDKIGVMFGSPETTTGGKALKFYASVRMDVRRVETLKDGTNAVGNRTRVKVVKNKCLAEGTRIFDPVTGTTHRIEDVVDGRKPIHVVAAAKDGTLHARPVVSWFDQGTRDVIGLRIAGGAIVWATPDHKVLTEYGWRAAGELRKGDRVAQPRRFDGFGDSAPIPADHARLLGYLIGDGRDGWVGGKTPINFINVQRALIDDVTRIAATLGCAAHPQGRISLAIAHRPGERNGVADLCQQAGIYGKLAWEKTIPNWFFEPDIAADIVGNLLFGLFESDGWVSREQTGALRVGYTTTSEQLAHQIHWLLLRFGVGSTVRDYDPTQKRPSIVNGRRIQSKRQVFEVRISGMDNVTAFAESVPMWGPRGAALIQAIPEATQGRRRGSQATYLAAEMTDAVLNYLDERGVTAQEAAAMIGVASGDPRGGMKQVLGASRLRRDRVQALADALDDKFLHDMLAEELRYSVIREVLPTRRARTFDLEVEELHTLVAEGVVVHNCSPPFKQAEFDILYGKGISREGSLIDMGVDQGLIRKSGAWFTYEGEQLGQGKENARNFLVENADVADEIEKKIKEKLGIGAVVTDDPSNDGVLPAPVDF

[11] = viability of PTEN-deleted HCT116 cells – cell-based, HCT116 PTEN knockout, dose response (AID 1047); type: functional;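 note: HCT116 colon tumor cells with PTEN knocked out; cells exposed to compound for 60 hours before readout; potency for loss of cell viability measured by luminescence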
[12] = viability of HCT116 lacking mutant beta-catenin – cell-based, human colon tumor, dose response (AID 1045); type: functional;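 note: HCT116 colon tumor cells with beta catenin knocked out; cells exposed to compound for 60 hours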
Beta-galactosidase = Beta-galactosidase (Escherichia coli, UniProt Q8VNN2); assay: detection-enzyme interference by beta-gal modulators – biochemical, E. coli enzyme, set 3, artefact control for CCR6 antagonist project, dose response (AID 504712); type: functional
[13] = viability loss in THP-1 monocytes – THP-1 cells, cytotoxicity control for Vif-APOBEC3G degradation inhibitor project, dose response (AID 1117359); type: functional; conditions: THP-1
[14] = NIH3T3 cell viability loss – ATP luminescence, mouse fibroblasts, counter-screen, dose response (AID 2010); type: functional, cell-based;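 note: cells exposed to compound for about 90 hours before reading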
[15] = target: Induced myeloid leukemia cell differentiation protein Mcl-1 (Homo sapiens, UniProt Q07820); type: functional
[16] = Trypanosoma cruzi growth suppression in host cells – NIH3T3 host cells, beta-gal luminescence, confirmation (AID 2044); type: functional, cell-based;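 note: intracellular parasites grown in NIH/3T3 mouse fibroblasts as host cells; luminescent beta-galactosidase reporter signal from transgenic T. cruzi replicating inside host cells; inhibitors lower the luminescence signal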
Cytochrome P450 2C19 = Cytochrome P450 2C19 (Homo sapiens, UniProt P33261); assay: Cytochrome panel assay with activity outcomes. Panel member name: p450-cyp2c19 Compounds with AC50 equal or less than 10 uM are considered active; type: functional
Cytochrome P450 2D6 = Cytochrome P450 2D6 (Homo sapiens, UniProt P10635);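 note: CYP2D6 member of a cytochrome P450 panel assay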
Cytochrome P450 2C9 = Cytochrome P450 2C9 (Homo sapiens, UniProt P11712)
Trypsin = Trypsin (Sus scrofa, UniProt P00761); assay: trypsin protease activity blockade – biochemical, quenched peptide fluorescence, cherry-pick, selectivity assay for Rce1 protease inhibitor project, dose response (AID 488789)
Genome polyprotein = Genome polyprotein (dengue virus type 2, UniProt P29990); assay: flavivirus cap methylation enzyme inhibition – biochemical, confirmation dose response, primary screen (AID 588689); type: functional
HeLa = assay: viability loss in HeLa cells – cell-based, ATP luminescence, cherry-pick samples, cytotoxicity control, dose response (AID 687004); type: functional; conditions: Homo sapiens

Cytochrome P450 2D6, sequence (P10635 whole entry): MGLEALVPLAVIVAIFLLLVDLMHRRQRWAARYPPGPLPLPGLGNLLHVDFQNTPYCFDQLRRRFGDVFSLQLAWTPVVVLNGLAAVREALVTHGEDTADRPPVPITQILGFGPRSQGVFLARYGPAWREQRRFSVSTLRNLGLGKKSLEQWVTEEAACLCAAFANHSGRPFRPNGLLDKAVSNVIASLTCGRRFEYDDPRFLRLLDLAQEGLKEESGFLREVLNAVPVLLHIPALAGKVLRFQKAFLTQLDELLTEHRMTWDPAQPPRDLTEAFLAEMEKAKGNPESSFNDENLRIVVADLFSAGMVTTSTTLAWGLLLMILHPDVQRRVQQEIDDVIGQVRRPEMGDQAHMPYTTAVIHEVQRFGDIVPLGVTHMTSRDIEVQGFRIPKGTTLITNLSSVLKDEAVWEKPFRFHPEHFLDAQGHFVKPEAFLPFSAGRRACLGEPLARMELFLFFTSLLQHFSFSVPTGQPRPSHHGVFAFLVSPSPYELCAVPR
Peroxisome proliferator-activated receptor gamma/Nuclear receptor corepressor 2, sequence (P37231 whole entry): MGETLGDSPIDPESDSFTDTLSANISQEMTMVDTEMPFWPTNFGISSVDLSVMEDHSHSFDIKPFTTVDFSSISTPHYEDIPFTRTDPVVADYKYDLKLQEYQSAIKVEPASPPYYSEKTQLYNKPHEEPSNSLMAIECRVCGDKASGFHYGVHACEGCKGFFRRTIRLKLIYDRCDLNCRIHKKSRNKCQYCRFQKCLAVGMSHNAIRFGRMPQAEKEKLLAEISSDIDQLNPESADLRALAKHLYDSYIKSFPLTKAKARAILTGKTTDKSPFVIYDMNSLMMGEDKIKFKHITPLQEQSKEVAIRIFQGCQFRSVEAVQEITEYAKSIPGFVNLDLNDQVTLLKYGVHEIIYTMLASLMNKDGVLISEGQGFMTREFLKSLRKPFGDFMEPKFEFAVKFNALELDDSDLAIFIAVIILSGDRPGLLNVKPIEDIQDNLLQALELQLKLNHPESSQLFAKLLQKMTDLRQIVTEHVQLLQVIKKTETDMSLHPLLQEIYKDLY
Peroxisome proliferator-activated receptor gamma/Nuclear receptor corepressor 2, sequence (Q9Y618 whole entry): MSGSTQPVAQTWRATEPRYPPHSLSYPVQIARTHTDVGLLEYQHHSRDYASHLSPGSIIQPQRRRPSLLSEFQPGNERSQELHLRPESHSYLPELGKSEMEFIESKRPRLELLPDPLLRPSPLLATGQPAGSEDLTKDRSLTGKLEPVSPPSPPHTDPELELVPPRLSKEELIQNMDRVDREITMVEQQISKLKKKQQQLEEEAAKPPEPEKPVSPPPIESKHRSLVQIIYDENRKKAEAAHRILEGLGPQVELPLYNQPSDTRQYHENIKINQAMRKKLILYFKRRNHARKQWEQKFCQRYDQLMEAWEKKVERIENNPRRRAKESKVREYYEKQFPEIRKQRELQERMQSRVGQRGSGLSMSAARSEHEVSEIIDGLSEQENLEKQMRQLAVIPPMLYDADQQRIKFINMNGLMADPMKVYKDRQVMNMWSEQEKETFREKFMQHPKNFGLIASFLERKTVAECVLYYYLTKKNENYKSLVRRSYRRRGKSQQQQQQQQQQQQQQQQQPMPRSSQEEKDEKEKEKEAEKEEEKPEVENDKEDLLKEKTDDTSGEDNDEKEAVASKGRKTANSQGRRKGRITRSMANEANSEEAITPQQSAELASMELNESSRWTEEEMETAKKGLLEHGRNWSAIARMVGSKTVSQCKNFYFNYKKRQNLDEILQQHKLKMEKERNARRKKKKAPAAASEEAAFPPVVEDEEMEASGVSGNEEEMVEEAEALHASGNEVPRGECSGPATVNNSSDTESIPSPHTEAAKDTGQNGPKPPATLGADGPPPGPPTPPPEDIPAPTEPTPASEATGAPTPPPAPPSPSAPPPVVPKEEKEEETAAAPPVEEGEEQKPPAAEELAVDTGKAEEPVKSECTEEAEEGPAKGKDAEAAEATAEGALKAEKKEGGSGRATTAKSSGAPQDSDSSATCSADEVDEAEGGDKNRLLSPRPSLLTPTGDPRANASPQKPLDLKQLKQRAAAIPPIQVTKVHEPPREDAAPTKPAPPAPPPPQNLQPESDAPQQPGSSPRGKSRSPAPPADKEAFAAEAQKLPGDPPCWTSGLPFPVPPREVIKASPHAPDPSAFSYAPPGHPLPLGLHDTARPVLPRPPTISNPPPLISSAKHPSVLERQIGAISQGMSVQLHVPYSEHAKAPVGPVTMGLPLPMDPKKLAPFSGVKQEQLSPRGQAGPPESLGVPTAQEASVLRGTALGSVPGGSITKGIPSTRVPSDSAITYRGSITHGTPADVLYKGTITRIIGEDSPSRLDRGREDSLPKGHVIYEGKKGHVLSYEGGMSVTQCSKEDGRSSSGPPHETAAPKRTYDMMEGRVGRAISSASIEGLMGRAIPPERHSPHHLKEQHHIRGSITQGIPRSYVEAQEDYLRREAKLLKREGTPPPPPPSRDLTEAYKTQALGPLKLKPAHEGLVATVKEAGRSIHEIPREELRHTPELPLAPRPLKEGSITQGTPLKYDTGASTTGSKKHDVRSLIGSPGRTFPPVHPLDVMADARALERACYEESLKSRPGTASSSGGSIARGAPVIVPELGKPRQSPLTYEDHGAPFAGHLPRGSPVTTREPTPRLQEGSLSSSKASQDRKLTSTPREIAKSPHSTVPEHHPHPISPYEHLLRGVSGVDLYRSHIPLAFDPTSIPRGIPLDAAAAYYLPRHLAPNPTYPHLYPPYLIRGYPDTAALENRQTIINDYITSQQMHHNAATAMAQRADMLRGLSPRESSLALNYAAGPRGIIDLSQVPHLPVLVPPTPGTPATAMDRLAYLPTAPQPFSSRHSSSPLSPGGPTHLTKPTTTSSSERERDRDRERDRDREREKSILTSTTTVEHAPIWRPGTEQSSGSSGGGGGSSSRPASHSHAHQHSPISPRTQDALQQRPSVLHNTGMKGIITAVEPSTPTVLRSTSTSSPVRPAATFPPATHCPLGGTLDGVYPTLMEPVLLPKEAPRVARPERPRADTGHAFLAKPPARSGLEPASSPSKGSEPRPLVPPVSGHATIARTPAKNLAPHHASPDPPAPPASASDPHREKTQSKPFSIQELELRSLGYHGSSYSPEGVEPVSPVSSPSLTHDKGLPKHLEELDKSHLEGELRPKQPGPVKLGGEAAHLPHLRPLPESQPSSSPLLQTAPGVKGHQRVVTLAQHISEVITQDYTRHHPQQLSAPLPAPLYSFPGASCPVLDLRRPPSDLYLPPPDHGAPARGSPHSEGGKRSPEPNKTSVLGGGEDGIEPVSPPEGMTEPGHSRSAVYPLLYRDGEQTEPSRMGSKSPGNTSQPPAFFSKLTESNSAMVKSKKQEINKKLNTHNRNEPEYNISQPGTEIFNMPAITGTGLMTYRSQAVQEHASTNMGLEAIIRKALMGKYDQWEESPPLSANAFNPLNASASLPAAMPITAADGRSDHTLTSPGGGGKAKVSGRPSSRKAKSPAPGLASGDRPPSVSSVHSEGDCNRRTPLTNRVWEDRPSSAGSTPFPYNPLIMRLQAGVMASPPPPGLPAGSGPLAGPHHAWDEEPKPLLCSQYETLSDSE
Cytochrome P450 2C19, sequence (P33261 whole entry): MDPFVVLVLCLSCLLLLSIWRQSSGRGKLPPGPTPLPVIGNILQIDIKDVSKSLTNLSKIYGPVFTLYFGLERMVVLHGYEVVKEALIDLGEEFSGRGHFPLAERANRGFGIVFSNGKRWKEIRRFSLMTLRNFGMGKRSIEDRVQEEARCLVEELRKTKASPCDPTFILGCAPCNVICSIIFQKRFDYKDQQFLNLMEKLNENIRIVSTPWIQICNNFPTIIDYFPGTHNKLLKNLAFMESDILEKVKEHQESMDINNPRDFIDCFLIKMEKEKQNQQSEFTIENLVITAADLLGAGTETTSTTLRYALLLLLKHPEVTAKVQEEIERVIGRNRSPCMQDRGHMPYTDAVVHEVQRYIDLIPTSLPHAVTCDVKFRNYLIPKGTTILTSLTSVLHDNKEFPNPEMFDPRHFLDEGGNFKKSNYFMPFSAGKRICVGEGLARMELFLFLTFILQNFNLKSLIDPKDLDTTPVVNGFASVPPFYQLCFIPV
Photoreceptor-specific nuclear receptor, sequence (Q9Y5X4 whole entry): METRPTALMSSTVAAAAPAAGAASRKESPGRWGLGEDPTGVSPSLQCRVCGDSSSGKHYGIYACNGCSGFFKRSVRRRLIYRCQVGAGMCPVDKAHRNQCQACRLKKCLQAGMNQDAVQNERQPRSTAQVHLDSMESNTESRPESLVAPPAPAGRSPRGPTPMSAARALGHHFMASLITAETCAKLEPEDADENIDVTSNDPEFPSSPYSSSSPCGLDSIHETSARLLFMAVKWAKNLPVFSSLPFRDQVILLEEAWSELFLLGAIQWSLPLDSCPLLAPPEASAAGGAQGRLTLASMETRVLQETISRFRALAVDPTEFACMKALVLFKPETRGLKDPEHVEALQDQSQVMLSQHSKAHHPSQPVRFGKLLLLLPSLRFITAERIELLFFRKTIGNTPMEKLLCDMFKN
FAD-linked sulfhydryl oxidase ALR, sequence (P55789 whole entry): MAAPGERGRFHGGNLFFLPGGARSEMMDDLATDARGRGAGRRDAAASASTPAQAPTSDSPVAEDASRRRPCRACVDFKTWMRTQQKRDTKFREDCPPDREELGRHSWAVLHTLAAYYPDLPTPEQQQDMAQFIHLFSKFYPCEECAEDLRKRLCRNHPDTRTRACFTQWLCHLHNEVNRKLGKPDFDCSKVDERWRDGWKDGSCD
Paired box protein Pax-8, sequence (Q06710 whole entry): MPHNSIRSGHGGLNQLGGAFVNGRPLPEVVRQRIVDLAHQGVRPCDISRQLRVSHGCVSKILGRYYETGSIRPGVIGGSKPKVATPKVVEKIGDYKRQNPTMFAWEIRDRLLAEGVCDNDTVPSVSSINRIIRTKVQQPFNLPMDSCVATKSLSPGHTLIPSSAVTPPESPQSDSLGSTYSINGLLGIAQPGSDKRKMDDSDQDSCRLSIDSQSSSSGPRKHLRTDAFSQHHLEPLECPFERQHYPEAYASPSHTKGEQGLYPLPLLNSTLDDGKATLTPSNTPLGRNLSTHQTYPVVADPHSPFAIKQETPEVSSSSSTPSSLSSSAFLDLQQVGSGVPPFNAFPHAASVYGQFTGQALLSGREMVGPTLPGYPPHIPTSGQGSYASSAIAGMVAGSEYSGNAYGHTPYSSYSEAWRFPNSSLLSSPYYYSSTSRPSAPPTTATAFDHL

Cc1cc2oc(C(=O)NCc3ccncc3)c(C)c2cc1C
EC50 [1]: > 50 µM (active)

CSc1cccc(NC(=O)c2cc(S(=O)(=O)N3CCCCC3)c[nH]2)c1
IC50 [2]: 3.45 µM (active)
IC50 [3]: 4.12 µM (active)

Nc1nn2cc(-c3ccccc3)nc2c2ccccc12
EC50 [1]: > 50 µM (active)

Cc1ccc(NC(=O)c2ccc([N+](=O)[O-])s2)cc1S(=O)(=O)N1CCOCC1
AC50 (Paired box protein Pax-8): 3.94 µM (active)
AC50 [4]: 3.78 µM (active)

CSc1nc(-c2ccc(Cl)cc2)c[nH]1
EC50 (H4): < 0.1 µM (active)
EC50 [5]: 0.386 µM (active)
EC50 [6]: 0.284 µM (active)
AC50 [7]: 2.02 µM (active)
EC50 [8]: 2.01 µM (active)
EC50 [9]: 0.276 µM (active)

O=C(CCl)N(c1ccccc1)c1c[nH]c2ccccc12
AC50 [10]: 8.51 µM (active)
EC50 (Protein RecA): 0.361 µM (active)
EC50 [11]: 3.78 µM (active)
AC50 [4]: 5.09 µM (active)
EC50 [12]: 3.3 µM (active)

Cc1nn(-c2ccccc2)c(O)c1/C=N/N1C(=O)c2ccc3c4c(ccc(c24)C1=O)CC3
IC50 (Beta-galactosidase): > 66.6 µM (inactive)

COc1cc(OC)c2ccc(=O)oc2c1C(CCN1CCCC(C)C1)c1ccc2c(c1)OCO2 (stereo not given)
CC50 [13]: > 40 µM (active)

CCn1c(C)cc(/C=C2\NC(=O)N(Cc3ccc(Cl)cc3)C2=O)c1C
EC50 [14]: > 30 µM (not active)
IC50 [15]: 3.37 µM (active)
EC50 [16]: 0.178 µM (active)
AC50 (Cytochrome P450 2C19; read-out: AC50): 1.78 µM (inconclusive)

Cc1ccccc1C(=O)c1cccn1CC(=O)NCCC1=CCCCC1
EC50 [1]: > 50 µM (active)

CC(=O)COC(=O)CCc1nc2ccccc2nc1O
AC50 (Cytochrome P450 2D6): inconclusive

CN(C)C1C(=O)C(C(N)=O)=C(O)C2(O)C(O)=C3C(=O)c4c(O)cccc4C(C)(O)C3CC12 (stereo not given)
EC50 [1]: > 50 µM (active)

COC(=O)CNC(=O)CN1C(=O)N(c2ccccc2)C(N(O)C(=O)Nc2ccccc2)C1(C)C (stereo not given)
AC50 (Cytochrome P450 2D6): inconclusive
AC50 (Cytochrome P450 2C19; read-out: AC50): 3.55 µM (inconclusive)
AC50 (Cytochrome P450 2C9): 10 µM (inconclusive)

Cc1ccc(OCC(=O)Nc2ccc3c(c2)OCO3)c(C)c1
EC50 (H4): 31.7 µM (active)
EC50 [5]: 0.914 µM (active)
EC50 [6]: < 0.1 µM (active)
EC50 [8]: > 12 µM (not active)
EC50 [9]: 1.1 µM (active)

O=S(=O)(O)c1ccc(/N=N\c2ccccc2)cc1
AC50 (Cytochrome P450 2D6): inconclusive

COc1ccc(C(=O)C2=C(O)C(=O)N(CCCC(=O)O)C2c2ccc(OC)cc2)cc1 (stereo not given)
AC50 (Cytochrome P450 2D6): inconclusive
AC50 (Cytochrome P450 2C19): inconclusive

Cn1c(=O)c(=O)n(C)c2cc(S(=O)(=O)N3CCc4ccccc43)ccc21
EC50 [1]: > 50 µM (active)

CCS(=O)(=O)Nc1c(C(=O)O)[nH]c2ccccc12
AC50 (Trypsin): > 100 µM (inactive)
AC50 [7]: 0.6 µM (active)

COc1ccc2oc(C(=O)Nc3ccc(S(=O)(=O)N(C)C4CCN(C)CC4)cc3)c(C)c2c1
EC50 [14]: 9.46 µM (active)
AC50 [4]: 13 µM (active)
EC50 [16]: 0.17 µM (active)

O=C(Nc1ccnc(-c2cccnc2)n1)c1ccc(Cl)cc1
IC50 [2]: 5.23 µM (active)
IC50 [3]: 5.27 µM (active)

CN(C)c1c([N+](=O)[O-])cc(N2C(=O)C=CC2=O)cc1[N+](=O)[O-]
IC50 (Beta-galactosidase): > 66.6 µM (inactive)
IC50 (Genome polyprotein): 11.1 µM (active)

CCOc1cnn(Cc2ccccc2)c(=O)c1SCc1ccccc1
IC50 [2]: 15.5 µM (not active)
IC50 [3]: > 39.8 µM (not active)

CC/N=c1\scc(C)n1/N=C/c1ccsc1
EC50 (H4): 11.1 µM (active)
EC50 [5]: 1.08 µM (active)
EC50 [6]: 16.6 µM (active)
EC50 [8]: 0.66 µM (active)
EC50 [9]: 0.582 µM (active)

Cc1cccc(C)c1NC(=O)C(CCc1ccccc1)N1CCC(c2ccccc2)CC1 (stereo not given)
AC50 (HeLa): > 52 µM (inactive)
